Measured values: patent US6346514B1, “Pharmaceutical lysine-containing polypeptide compositions and methods of use thereof” (priority 1991, dated 2002)

Test system: Vibrio anguillarum (V-775)
Test: Vaccine augmentation in Rainbow trout challenged with Vibrio anguillarum
Type: in vivo, Rainbow trout (Oncorhynchus mykiss)
Protocol: In the present investigation, fish were obtained and inoculated at approximately 12 weeks of age. Immunologic studies were conducted under a variety of conditions in which fish were provided with vaccination to observe vaccine augmentation, and under conditions in which no vaccine was provided prior to inoculum. The effects of exposure time, HM897 concentration, and vaccine on mortalities relative to control studies in which no HM897 was administered provided data for analysis of the immunologic effect of HM897.
The study was conducted using Rainbow trout (Oncorhynchus mykiss) to compare the effects of a standard fish vaccine to the protection provided by varying dosages of HM897. The fish were challenged with Vibrio anguillarum (V-775), a bacteria that causes fatal vibriosis, typically 3-5 days following pathogen exposure.
Rainbow Trout (Oncorhynchus mykiss) weighing approximately 5 grams were used as test organisms. The fish were obtained from Cran-Mar Trout Farm. Upon arrival at BRL's facility, the fish were quarantined for a minimum of seven days, and observed to be disease free. During this period, the fish were held at a stable temperature. There was consistent water quality in an aerated flow-through system with a flow rate of approximately 30 liters per hour. During the holding period the fish were observed daily for signs of disease, stress, injury, hemorrhaging, and external parasite. The fish were not fed 48 hours prior to testing.
The Rainbow trout used in this study weighed an average of 5 grams. The fish were divided into 21 groups with 50 fish per group. Each group of 50 fish was maintained in two 10-gallon tanks (25 fish/tank).
The level of bacterial dilution to achieve a LD75 (the level designed to kill 75% of the non-vaccinated fish) was a dilution of 10^−4. to 10^−5. The challenge bacteria were grown for 48 hours at 25° C in trypticase soy broth. The 10^−4 dilution was made from this broth in 0.9% saline. All fish excepting the control group that received no bacterial challenge were inoculated 7 days after exposure to HM897.
Rainbow trout hatchling were exposed to the concentration of HM897 as described below. Some of the fish had been vaccinated while others had received no vaccination. In each tank, fifty vaccinated or unvaccinated fish were exposed for a period of 5 minutes to HM897, and then removed and placed in an assigned tank according to the group number.
The positive control group (III) received a vaccine made from Vibrio anguillarum (V-775). This was made through a fermentation and extraction process in the BRL laboratory facility and is equivalent to the aquaculture industry standard vibrio vaccine.
All groups scheduled to be challenged with the Vibrio anguillarum bacterium were challenged at the LD75 dilution on day seven of the experiment by i.p. injection of 0.1 mL of 10^−4 bacterial dilution. The fish were observed daily for mortalities.

Thr-Ala-Glu-Glu-Lys (TAEEK) [HM897]
10: Cumulative Mortalities (Day 18, Group IVc: vaccinated, HM897 50 μg/38 liters) | Cumulative Mortalities (Day 19, Group IVc: vaccinated, HM897 50 μg/38 liters) | Cumulative Mortalities (Day 20, Group IVc: vaccinated, HM897 50 μg/38 liters) | Cumulative Mortalities (Day 21, Group IVc: vaccinated, HM897 50 μg/38 liters) | Total Mortalities (Table XI-3, Group IVc: vaccinated, HM897 50 μg/38 liters) | Total Mortalities (Table XI-4, Group IVc: vaccinated, HM897 50 μg/38 liters)
26%: Percent Mortalities (Group IVa: vaccinated, HM897 2.5 μg/38 liters)
32: Cumulative Mortalities (Day 18, Group Vd: not vaccinated, HM897 150 μg/38 liters) | Cumulative Mortalities (Day 19, Group Vd: not vaccinated, HM897 150 μg/38 liters) | Cumulative Mortalities (Day 20, Group Vd: not vaccinated, HM897 150 μg/38 liters) | Cumulative Mortalities (Day 21, Group Vd: not vaccinated, HM897 150 μg/38 liters) | Total Mortalities (Table XI-3, Group Vd: not vaccinated, HM897 150 μg/38 liters) | Total Mortalities (Table XI-4, Group Vd: not vaccinated, HM897 150 μg/38 liters)
no protection: protection against the bacterial infection (HM897 exposure without vaccine (Groups Va to Ve))
7: Cumulative Mortalities (Day 18, Group IVb: vaccinated, HM897 10 μg/38 liters) | Cumulative Mortalities (Day 19, Group IVb: vaccinated, HM897 10 μg/38 liters) | Cumulative Mortalities (Day 20, Group IVb: vaccinated, HM897 10 μg/38 liters) | Cumulative Mortalities (Day 21, Group IVb: vaccinated, HM897 10 μg/38 liters) | Total Mortalities (Table XI-3, Group IVb: vaccinated, HM897 10 μg/38 liters) | Total Mortalities (Table XI-4, Group IVb: vaccinated, HM897 10 μg/38 liters)
statistically significant effect: augmentation of vaccinations (vaccinated fish exposed to HM897)
17: Cumulative Mortalities (Day 17, Group IVd: vaccinated, HM897 100 μg/38 liters) | Cumulative Mortalities (Day 18, Group IVd: vaccinated, HM897 100 μg/38 liters) | Cumulative Mortalities (Day 19, Group IVd: vaccinated, HM897 100 μg/38 liters) | Cumulative Mortalities (Day 20, Group IVd: vaccinated, HM897 100 μg/38 liters) | Cumulative Mortalities (Day 21, Group IVd: vaccinated, HM897 100 μg/38 liters) | Total Mortalities (Table XI-3, Group IVd: vaccinated, HM897 100 μg/38 liters) | Total Mortalities (Table XI-4, Group IVd: vaccinated, HM897 100 μg/38 liters)
34: Cumulative Mortalities (Day 17, Group Vc: not vaccinated, HM897 75 μg/38 liters) | Cumulative Mortalities (Day 18, Group Vc: not vaccinated, HM897 75 μg/38 liters) | Cumulative Mortalities (Day 19, Group Vc: not vaccinated, HM897 75 μg/38 liters) | Cumulative Mortalities (Day 20, Group Vc: not vaccinated, HM897 75 μg/38 liters) | Cumulative Mortalities (Day 21, Group Vc: not vaccinated, HM897 75 μg/38 liters) | Total Mortalities (Table XI-3, Group Vc: not vaccinated, HM897 75 μg/38 liters) | Total Mortalities (Table XI-3, Group Ve: not vaccinated, HM897 250 μg/38 liters) | Total Mortalities (Table XI-4, Group Vc: not vaccinated, HM897 75 μg/38 liters) | Total Mortalities (Table XI-4, Group Ve: not vaccinated, HM897 250 μg/38 liters)
34%: Percent Mortalities (Group IVd: vaccinated, HM897 100 μg/38 liters)
64%: Percent Mortalities (Group Vd: not vaccinated, HM897 150 μg/38 liters)
13: Cumulative Mortalities (Day 18, Group IVa: vaccinated, HM897 2.5 μg/38 liters) | Cumulative Mortalities (Day 19, Group IVa: vaccinated, HM897 2.5 μg/38 liters) | Cumulative Mortalities (Day 20, Group IVa: vaccinated, HM897 2.5 μg/38 liters) | Cumulative Mortalities (Day 21, Group IVa: vaccinated, HM897 2.5 μg/38 liters) | Total Mortalities (Table XI-3, Group IVa: vaccinated, HM897 2.5 μg/38 liters) | Total Mortalities (Table XI-4, Group IVa: vaccinated, HM897 2.5 μg/38 liters)
66%: Percent Mortalities (Group Va: not vaccinated, HM897 10 μg/38 liters) | Percent Mortalities (Group Vb: not vaccinated, HM897 25 μg/38 liters)
20%: Percent Mortalities (Group IVc: vaccinated, HM897 50 μg/38 liters)
33: Cumulative Mortalities (Day 17, Group Va: not vaccinated, HM897 10 μg/38 liters) | Cumulative Mortalities (Day 17, Group Vb: not vaccinated, HM897 25 μg/38 liters) | Cumulative Mortalities (Day 18, Group Va: not vaccinated, HM897 10 μg/38 liters) | Cumulative Mortalities (Day 18, Group Vb: not vaccinated, HM897 25 μg/38 liters) | Cumulative Mortalities (Day 19, Group Va: not vaccinated, HM897 10 μg/38 liters) | Cumulative Mortalities (Day 19, Group Vb: not vaccinated, HM897 25 μg/38 liters) | Cumulative Mortalities (Day 20, Group Va: not vaccinated, HM897 10 μg/38 liters) | Cumulative Mortalities (Day 20, Group Vb: not vaccinated, HM897 25 μg/38 liters) | Cumulative Mortalities (Day 21, Group Va: not vaccinated, HM897 10 μg/38 liters) | Cumulative Mortalities (Day 21, Group Vb: not vaccinated, HM897 25 μg/38 liters) | Total Mortalities (Table XI-3, Group Va: not vaccinated, HM897 10 μg/38 liters) | Total Mortalities (Table XI-3, Group Vb: not vaccinated, HM897 25 μg/38 liters) | Total Mortalities (Table XI-4, Group Va: not vaccinated, HM897 10 μg/38 liters) | Total Mortalities (Table XI-4, Group Vb: not vaccinated, HM897 25 μg/38 liters)
14%: Percent Mortalities (Group IVb: vaccinated, HM897 10 μg/38 liters)
68%: Percent Mortalities (Group Vc: not vaccinated, HM897 75 μg/38 liters) | Percent Mortalities (Group Ve: not vaccinated, HM897 250 μg/38 liters)
